Source: patent publication US20090215742A1, “AMIDE […]” (PFIZER, INC., priority 2005, published 2009)

Molecular target: T1, HSP-90 (Homo sapiens, UniProt P07900)
T1 construct: fused on or other part: 6-His tag at the C-terminus
Assay: HSP-90 SPA (scintillation proximity assay) competition binding assay, displacement of tritiated propyl-Geldanamycin
Details: for inhibition at 1 µM: read-out: % inhibition @ 1 μM; for inhibition at 10 µM: read-out: % inhibition @ 10 μM

| SMILES | inhibition at 1 µM | inhibition at 10 µM |
| --- | --- | --- |
| COc1cc(C2=NOC3(COCCN(C(=O)c4ccc(O)cc4O)C3)C2)ccc1F (stereo not shown) [Example 129, 4-{[3-(4-fluoro-3-methoxyphenyl)-1,7-dioxa-2,10-diazaspiro[4.6]undec-2-en-10-yl]carbonyl}benzene-1,3-diol] | 60.5% | 88.5% |
| O=C(c1ccc(O)cc1O)N1CCC(Oc2cccc(Cl)c2)CC1 [Example 69, 4-{[4-(3-chlorophenoxy)piperidin-1-yl]carbonyl}benzene-1,3-diol] | 33.9% | 76.6% |
| O=C(c1ccc(O)cc1O)N1CCOC[C@@H]1c1ccccc1 [Example 135, 4-[(3-phenylmorpholin-4-yl)carbonyl]benzene-1,3-diol] | 15.9% | 44.7% |
| O=C(c1cc(-c2ccncn2)ccc1O)N1Cc2ccccc2C1 [Example 32, 2-(1,3-dihydro-2H-isoindol-2-ylcarbonyl)-4-pyrimidin-4-ylphenyl] | -11.9% | 14.2% |
| CN(Cc1nnc(-c2cccc(C#N)c2)o1)C(=O)c1ccc(O)cc1O [Example 121, N-{[5-(3-cyanophenyl)-1,3,4-oxadiazol-2-yl]methyl}-2,4-dihydroxy-N-methylbenzamide] | 10.6% | 64.6% |
| O=C(c1ccc(O)cc1O)N1CCOCC2(CC(c3cc(F)cc(F)c3)=NO2)C1 (stereo not shown) [Example 128, 4-{[3-(3,5-difluorophenyl)-1,7-dioxa-2,10-diazaspiro[4.6]undec-2-en-10-yl]carbonyl}benzene-1,3-diol] | 31.2% | 73.1% |
| COc1ccc(CCN(C)C(=O)c2ccc(O)cc2O)cc1OC [Example 102, N-[2-(3,4-dimethoxyphenyl)ethyl]-2,4-dihydroxy-N-methylbenzamide] | 9.8% | 54.4% |
| O=C(c1ccc(O)cc1O)N1CCC(CCc2cnccn2)CC1 [Example 47, 4-{[4-(2-pyrazin-2-ylethyl)piperidin-1-yl]carbonyl}benzene-1,3-diol] | 43.4% | 80% |
| Cc1cc(C)c2c(c1)CCC1(CCN(C(=O)c3ccc(O)cc3O)CC1)O2 [Example 75, 4-[(6,8-dimethyl-3,4-dihydro-1′H-spiro[chromene-2,4′-piperidin]-1′-yl)carbonyl]benzene 1,3-diol] | 51.6% | 82% |
| O=C(c1ccc(O)cc1O)N1CCOCC(COCC2CC2)C1 (stereo not shown) [Example 37] | 24.6% | 64.1% |
| COc1ccc2oc(N3CCN(C(=O)c4ccc(O)cc4O)CC3)nc2c1 [Example 127, 4-{[4-(5-methoxy-1,3-benzoxazol-2-yl)piperazin-1-yl]carbonyl}benzene-1,3-diol] | 21.1% | 60.3% |
| CC(C)(C)CC1CCCCN1C(=O)c1ccc(O)cc1O (stereo not shown) [Example 41, 4-{[2-(2,2-dimethylpropyl)piperidin-1-yl]carbonyl}benzene-1,3-diol] | 64.8% | 86.8% |
| O=C(c1ccc(O)cc1O)N1CCC(Oc2ccc(Cl)cc2)CC1 [Example 68, 4-{[4-(4-chlorophenoxy)piperidin-1-yl]carbonyl}benzene-1,3-diol] | 37.2% | 78.6% |
| O=C(c1ccc(O)cc1O)N1CCOCC2(CC(c3ccc(F)cc3)=NO2)C1 (stereo not shown) [Example 120, 4-{[3-(4-fluorophenyl)-1,7-dioxa-2,10-diazaspiro[4.6]undec-2-en-10-yl]carbonyl}benzene-1,3-diol] | 76.2% | 89.4% |
